Results on 9 compounds are retold here after EP0433163A2, “Process for the preparation of imidazobenzodiazepines and their salts” (ROUSSEL-UCLAF, priority 1989, dated 1991).

Assay [1] addresses récepteurs de benzodiazépine. The experiment in a line: Benzodiazepine receptor binding (FRB), method of GB 2 128 989. As to conditions: in vitro benzodiazepine receptor binding; type of value not stated; read-out: FRBnM. From the text: La recherche de la fixation aux récepteurs de benzodiazépine (FRB) est réalisée par le procédé décrit dans GB 2 128 989.
Assay [2] has as its system récepteurs de benzodiazépine. The experiment in a line: In vivo binding to benzodiazepine receptors, method of Goeders and Kuhar, Life Sciences (1985) 37 345. The source says: La mesure de la fixation in vivo aux récepteurs de benzodiazépine est réalisée selon le procédé décrit par Goeders N.E. and Kuhar M J, Life Sciences (1985) 37 345.

With `CCOC(=O)c1ncn2c1CN(C)C(=O)c1cccc(N)c1-2` [EXEMPLE 6, 5,6-dihydro-10-amino-5-méthyl-6-oxo-4H-imidazo [1,5-a] [1,4] benzodiazépine-3-carboxylate d'éthyle], the IC50 in assay [1] is 966 nM.

For `CCOC(=O)c1ncn2c1CN(C)C(=O)c1c(F)ccc(F)c1-2` [EXEMPLE 1E, 7,10-difluoro-5,6-dihydro-5-méthyl-6-oxo-4H-imidazo [1,5-a] [1,4] benzodiazépine-3-carboxylate d'éthyle], the IC50 in assay [1] stood at 174 nM. Besides, the “Fixation in vivo DE50 mg/pk ip” value in assay [2] is 1,1 mg/pk.

Regarding `O=C1NCc2c(C(=O)C3CC3)ncn2-c2ccccc21` [EXEMPLE 4, 5,6-dihydro-6-oxo-4H-imidazo [1,5-a] [1,4] benzodiazépine-3-yl-cyclopropylméthanone], the IC50 in assay [1] turned out to be 582 nM.

Regarding `CN1Cc2c(C(=O)C3CC3)ncn2-c2cccc(C(F)(F)F)c2C1=O` [EXEMPLE 3C, 5,6-dihydro-5-méthyl-6-oxo-7-trifluorométhyl-4H-imidazo [1,5-a] [1,4] benzodiazépine-3-yl-cyclopropylméthanone], the IC50 in assay [1] was found to be 9.4 nM. In addition, the “Fixation in vivo DE50 mg/pk ip” value in assay [2] is given as 0,05 mg/pk.

Consider `CCOC(=O)c1ncn2c1CN(C)C(=O)c1c(F)c(F)c(F)c(F)c1-2` [EXEMPLE 1G, 5,6-dihydro-5-méthyl-6-oxo-7,8,9,10-tétrafluoro-4H-imidazo [1,5-a] [1,4] benzodiazépine-3-carboxylate d'éthyle], for which, in assay [1], the IC50 worked out at 7500 nM. In addition, in assay [2], the “Fixation in vivo DE50 mg/pk ip” value turned out to be 100 mg/pk.

As for `CN1Cc2c(C(=O)C3CC3)ncn2-c2cccc(Cl)c2C1=O` [EXEMPLE 3B, 7-chloro-5,6-dihydro-5-méthyl-6-oxo-4H-imidazo [1,5-a] [1,4] benzodiazépine-3-yl-cyclopropylméthanone], the IC50 in assay [1] turned out to be 7.7 nM.

As for `CCOC(OCC)c1ncn2c1CN(C)C(=O)c1c(Cl)cccc1-2` [EXEMPLE 5, 7-chloro-3-diethoxyméthyl-5,6-dihydro-5-méthyl-4H-imidazo [1,5-a] [1,4] benzodiazépine-6(4H)-one], the IC50 in assay [1] was determined as 339 nM. Further, in assay [2], the “Fixation in vivo DE50 mg/pk ip” value was 2,1 mg/pk.

As to `CN1Cc2c(C(=O)C3CC3)ncn2-c2cccc(F)c2C1=O` [EXEMPLE 3D, 5,6-dihydro-7-fluoro-5-méthyl-6-oxo-4H-imidazo [1,5-a] [1,4] benzodiazépine-3-yl-cyclopropylméthanone], in assay [1], the IC50 came out at 27 nM.

Turning to `CCOC(=O)c1ncn2c1CN(C)C(=O)c1cccc(F)c1-2` [EXEMPLE 1D, 5,6-dihydro-10-fluoro-5-méthyl-6-oxo-4H-imidazo [1,5-a] [1,4] benzodiazépine-3-carboxylate d'éthyle], the IC50 in assay [1] stood at 410 nM. In addition, the “Fixation in vivo DE50 mg/pk ip” value in assay [2] was found to be 21 mg/pk.
